Measurements as given in article PMC7269481, “ZN148 Is a Modular Synthetic Metallo-β-Lactamase Inhibitor That Reverses Carbapenem Resistance in Gram-Negative Pathogens In Vivo” (Antimicrobial Agents and Chemotherapy, 2020).
Several values for one entry are separate records, joined by “and”; a condition that tells them apart may be missing. Equal values may be shown once. Read-outs that look alike come from different tables or passages of the source.

Tests used:
[1] = system: NDM-1-producing A. baumannii strains (n=6); assay: Carbapenem MIC, NDM-1-producing A. baumannii; assay type: cell-based; settings: carbapenem alone or in combination with 50µM ZN148; one value per strain (n=6)
Description: (§1) MICs of carbapenems alone and in combination with inhibitors were determined by broth microdilution according to the Clinical and Laboratory Standards Institute (CLSI) guidelines ([48]) using either premade plates (TREK Diagnostic Systems/Thermo Fisher Scientific, East Grinstead, United Kingdom) with meropenem or in-house-prepared plates with meropenem, imipenem, and doripenem. ZN148 and other inhibitors were tested at a fixed concentration of 50 μM. Cation-adjusted Mueller-Hinton medium (TREK Diagnostic Systems/Thermo Fisher Scientific; Becton Dickinson, Franklin Lakes, NJ) were used as growth medium. The plates were incubated for 20 h at 37°C. ZN148, ZN222, ZN223, ZN228, and TPA were initially tested in combination with meropenem using two indicator strains: NDM-1-producing K. pneumoniae ([49], [50]) and VIM-2-producing P. aeruginosa ([51]). The activity of ZN148 were subsequently tested against two extended strain collections: (i) in combination with meropenem against MBL-producing Enterobacterales (n = 62), MBL-producing P. aeruginosa (n = 9) and MBL- and class D carbapenemase-coproducing Enterobacterales (n = 5) from the strain collection at the Norwegian National Advisory Unit on Detection of Antimicrobial Resistance and (ii) in combination with meropenem, imipenem, and doripenem against globally collected MBL-producing E. coli (n = 87), K. pneumoniae (n = 85), P. aeruginosa (n = 52), and A. baumannii (n = 6), MBL- and class A/D carbapenemase-coproducing E. coli (n = 11), K. pneumoniae (n = 15) and A. baumannii (n = 7) at IHMA Europe, Sàrl, Switzerland. E. coli ATCC 25922 and P. aeruginosa ATCC 27853 were used as quality control strains. The MBL inhibitors were also tested for intrinsic antibacterial activity against the strains.

[2] = system: A. baumannii co-producing MBLs and class A/D serine carbapenemases; assay: Carbapenem MIC, A. baumannii co-producing NDM-1 and class D carbapenemases; assay type: cell-based; settings: carbapenem alone or with 50µM ZN148, one value per strain
Description: as §1

[3] = system: class A carbapenemase (KPC)-producing E. coli; assay: Carbapenem MIC, class A carbapenemase-producing E. coli; assay type: cell-based; settings: carbapenem alone or with 50µM ZN148
Description: as §1

[4] = system: E. coli co-producing MBLs and class A/D serine carbapenemases; assay: Carbapenem MIC, E. coli co-producing MBLs and class A/D serine carbapenemases; assay type: cell-based; settings: carbapenem alone or with 50µM ZN148
Description: as §1

[5] = system: K. pneumoniae co-producing MBLs and class A/D serine carbapenemases; assay: Carbapenem MIC, K. pneumoniae co-producing MBLs and class D carbapenemases; assay type: cell-based; settings: carbapenem alone or with 50µM ZN148, one value per strain
Description: as §1

[6] = system: class A carbapenemase (KPC)-producing E. cloacae; assay: Carbapenem MIC, class A carbapenemase-producing E. cloacae; assay type: cell-based; settings: carbapenem alone or with 50µM ZN148
Description: as §1

[7] = system: VIM-2-producing P. aeruginosa K34-7; assay: Meropenem MIC, broth microdilution, indicator strain K34-7; assay type: cell-based; settings: meropenem alone or in combination with 50 μM of the labelled inhibitor
Description: as §1

[8] = system: NDM-1-producing K. pneumoniae K66-45; assay: Meropenem MIC, broth microdilution, indicator strain K66-45; assay type: cell-based; settings: meropenem alone or in combination with 50 μM of the labelled inhibitor
Description: as §1

[9] = molecular target: T1, VIM-2 (Escherichia coli, UniProt Q5U7L7); assay: Time-dependent inactivation kinetics of purified VIM-2 (nitrocefin); assay type: biochemical
T1 construct: made in house
Description: (§2) Protein expression and purification of NDM-1 and VIM-2 were performed as previously described ([36], [43], [57]). Stock solutions of purified NDM-1 and VIM-2 were prepared in 50 mM HEPES buffer (pH 7.5; Merck). Inhibition of NDM-1 and VIM-2 were determined for ZN148 and the analogues ZN222, ZN223, and ZN228 at different concentrations of inhibitor after preincubation times of 2, 8, 15, 25, and 32 min in 50 mM HEPES buffer (pH 7.5) supplemented with 1 μM ZnSO4 (Sigma-Aldrich) and bovine serum albumin (Sigma-Aldrich; final concentration, 2 μg/ml) at 25°C. Concentrations of 1 nM VIM-2 and 30 nM NDM-1 were used, and the reaction was initiated by the addition of 30 μM nitrocefin (Merck) for VIM-2 or 100 μM imipenem (Sigma-Aldrich) for NDM-1. The reaction was measured at 482 nm (VIM-2) or […] (NDM-1) in either standard 96-well plates (Thermo Fisher Scientific) for VIM-2 or UV-transparent 96-well plates (Corning, Kennebunk, ME) for NDM-1 at 25°C in a SpectraMax Plus plate reader (Molecular Devices). All of the enzyme and substrate concentrations indicated are the final concentrations in the assay. The enzyme activity as a percentage was calculated based on the initial velocity and compared to the control without inhibitor compound. All tests were performed at least in duplicates.
(§3) The observed rate constant (kobs) per inhibitor concentration was calculated from the slope of a semilog plot of the enzyme activity in percent versus preincubation time.
(§4) By fitting these values, the irreversible kinetic parameters maximum inactivation rate (kinact) and the inhibitor concentration that produces half-maximal rate of inactivation (KI) were obtained. Finally, the inhibitors were characterized by calculating kinact/KI. Where no saturation curve could be observed, KI and kinact were determined from the linear part of plot 1/kobs versus 1/[I].

[10] = molecular target: T2, NDM-1 (Klebsiella pneumoniae, UniProt C7C422); assay: Time-dependent inactivation kinetics of purified NDM-1 (imipenem); assay type: biochemical
T2 construct: made in house
T2 sequence (C7C422 29-270, looked up): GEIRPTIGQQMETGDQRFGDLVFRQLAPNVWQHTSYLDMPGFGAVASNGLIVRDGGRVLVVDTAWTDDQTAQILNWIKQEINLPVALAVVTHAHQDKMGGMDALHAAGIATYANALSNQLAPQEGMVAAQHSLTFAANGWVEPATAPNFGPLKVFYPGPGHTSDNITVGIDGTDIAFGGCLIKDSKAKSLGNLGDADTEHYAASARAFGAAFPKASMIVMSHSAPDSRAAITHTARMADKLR
Description: as §2, §3, §4

[11] = system: HepG2 cells; assay: In vitro toxicity, alamarBlue viability; assay type: cell-based, human; settings: 24 h
Description: The human hepatoblastoma HepG2 cell line (HB-8065; ATCC, Manassas, VA) was cultured in DMEM-GlutaMAX (5.5 mM glucose; Thermo Fisher) supplemented with 10% fetal bovine serum (Sigma-Aldrich), streptomycin (100 μg/ml; Gibco/Thermo Fisher), and penicillin (100 U/ml; Gibco/Thermo Fisher) at 37°C in 5% CO2. For viability assays, cells were seeded in white 96-well Nunclon plates (Sigma-Aldrich) at a density of 20,000 cells/well and left overnight to adhere. ZN148 and TPA (Sigma-Aldrich, Darmstadt, Germany) dissolved in dimethyl sulfoxide (DMSO; (Sigma-Aldrich) were added to the white 96-well plates containing 20,000 HepG2 cells/well at concentrations ranging from 1 to 1 × 10^−3 mM (a DMSO concentration kept below 1%), followed by incubation for 24 h at 37°C in 5% CO2. After 24 h, alamarBlue cell viability reagent (Thermo Fisher, Carlsbad, CA) was added (10% final concentration), followed by incubation for 4 h at 37°C. The proportion of viable cells in each well was measured in a fluorescence plate reader (Clariostar; BMGlabtech, Germany) at excitation 550 nm/emission 603 nm ([56]). Data from eight replicates were fitted by nonlinear regression to determine IC50 values using Prism (GraphPad Software, Inc.).

[12] = read-out: affinity toward Zn^2+; cited from earlier work
[13] = molecular target: T1, VIM-2; assay type: biochemical; settings: after incubation with inhibitor and its removal (PD-10); 100 μM ZnSO4
Description: For reversibility of enzyme activity after incubation with ZN148, 3 ml of VIM-2 or NDM-1 was diluted with or without ZN148 in Chelex HEPES buffer (pH 7.5) and subsequently incubated for 1 h on ice. Then, 2.5 ml of each solution was loaded onto an equilibrated PD-10 column (GE Healthcare, Pittsburgh, PA), washed with 1 ml, and eluted with 1.5 ml of Chelex HEPES buffer (pH 7.5), respectively. Samples spiked and not spiked with inhibitor were diluted to a final enzyme concentration of 1 nM VIM-2 and 3 nM NDM-1. The initial reaction velocity was determined by adding nitrocefin (Merck) for VIM-2 or imipenem (Sigma-Aldrich) for NDM-1 at final concentrations of 50 and 100 μM, respectively. The initial enzyme reactions were recorded at 25°C. Inhibitor and enzyme alone were included as controls. All measurements were performed at least in duplicates. For enzyme restorability, pre- and postcolumn samples were supplemented with ZnSO4 (Sigma-Aldrich) to a final concentration of 100 μM and allowed to incubate for 5 min at 25°C. The initial enzyme velocity was then determined as described above.

[14] = molecular target: T1, VIM-2; assay type: biochemical; settings: VIM-2 preincubated with inhibitor
Description: VIM-2 (0.4 μM) was preincubated on ice for 30 min with or without ZN148. Complete protein unfolding was archived in 50 mM HEPES buffer (pH 7.5) supplemented with 1 μM ZnSO4 (Sigma-Aldrich) and 8 M urea (Merck, Darmstadt, Germany). Refolding was achieved by a stepwise buffer exchange using centrifugal cutoff filters (10 kDa; Merck) and decreasing concentrations of urea ([…] in 50 mM HEPES buffer [pH 7.5]). VIM-2 was diluted to a final concentration of 1 nM, and the enzyme activity was measured by adding nitrocefin (Merck) to a final concentration of 50 μM.

[15] = Escherichia coli, KPC-3 strain, read-out: MIC
[16] = Enterobacter cloacae, KPC-3 strain, read-out: MIC
[17] = KPC-2 strains, one value per strain

C[C@@H](O)[C@H]1C(=O)N2C(C(=O)O)=C(SCCN=CN)C[C@H]12 [IPM, imipenem]
MIC [1]: > 64 µg/mL | MIC ([2]; NDM-1 + OXA-23-like strains): > 64 µg/mL | MIC [3, 15]: 8 µg/mL | MIC ([4]; NDM-1 + GES-2 strain): 16 µg/mL | MIC ([4]; NDM-5 + OXA-48 strain): 32 µg/mL | MIC ([5]; NDM-1 + OXA-232 strains): > 64 µg/mL | MIC ([5]; NDM-5 + OXA-181 strains): > 64 µg/mL | MIC ([6]; Enterobacter cloacae, KPC-2 strains, one value per strain, read-out: MIC): 8 µg/mL | MIC [6, 16]: 16 µg/mL | MIC [6, 17]: 16 µg/mL

CN(C[C@H](O)[C@@H](O)[C@H](O)[C@H](O)CO)C(=O)c1ccc(CN(Cc2ccccc2)Cc2ccccn2)nc1 [ZN223]
meropenem MIC [7]: 32 µg/mL | meropenem MIC [8]: 32 µg/mL | kinact [9]: 0.000617 s⁻¹ | kinact/KI [9]: 11.7 M⁻¹ s⁻¹ | kinact [10]: 0.000633 s⁻¹ | kinact/KI [10]: 1 M⁻¹ s⁻¹

c1ccc(CN(Cc2ccccn2)Cc2ccccn2)nc1 [TPA, Tris-picolylamine]
meropenem MIC [7]: 1 µg/mL | IC50 [11]: 9.8 µM and 9.75 µM | meropenem MIC [8]: 0.125 µg/mL | Kd [12]: 10 pM

CN(C[C@H](O)[C@@H](O)[C@H](O)[C@H](O)CO)C(=O)c1ccc(CN(Cc2ccccn2)Cc2ccccn2)cc1 [ZN228]
meropenem MIC [7]: 32 µg/mL | meropenem MIC [8]: 32 µg/mL | kinact [9]: 0.000567 s⁻¹ | kinact/KI [9]: 23.3 M⁻¹ s⁻¹ | kinact [10]: 0.00127 s⁻¹ | kinact/KI [10]: 1.83 M⁻¹ s⁻¹

C[C@@H](O)[C@H]1C(=O)N2C(C(=O)O)=C(S[C@@H]3CN[C@H](CNS(N)(=O)=O)C3)[C@H](C)[C@H]12 [DOR, doripenem]
MIC [1]: > 64 µg/mL | MIC ([2]; NDM-1 + OXA-23-like strains): > 64 µg/mL | MIC ([2]; NDM-1 + OXA-24-like, OXA-58-like strains): > 64 µg/mL | MIC ([3]; Escherichia coli, KPC-2 strains, one value per strain, read-out: MIC): 4 µg/mL | MIC [3, 15]: 4 µg/mL | MIC [3, 17]: 2 µg/mL | MIC ([4]; NDM-1 + GES-2 strain): 64 µg/mL | MIC ([4]; NDM-5 + OXA-48 strain): > 64 µg/mL | MIC ([4]; NDM-5 + OXA-181 strains, one value per strain): 64 µg/mL | MIC ([4]; NDM-5 + OXA-232 strains, one value per strain): > 64 µg/mL | MIC ([5]; NDM-1 + OXA-232 strains): > 64 µg/mL | MIC ([5]; NDM-5 + OXA-181 strains): > 64 µg/mL | MIC [6, 16]: 2 µg/mL

O=C(O)CN(CCN(CC(=O)O)CC(=O)O)CC(=O)O [EDTA]
MBL activity restored by addition of exogenous zinc, compared to untreated control [13]: complete or nearly complete (∼80%) restoration of activity | enzyme activity after unfolding and stepwise refolding, of control activity [14]: > 80%

CN(C[C@H](O)[C@@H](O)[C@H](O)[C@H](O)CO)C(=O)c1ccc(CN(Cc2ccccc2)Cc2ccccc2)nc1 [ZN222]
meropenem MIC [7]: 32 µg/mL | meropenem MIC [8]: 32 µg/mL
